Tests used:
Human Mer = biological target: T1, Human Mer (Homo sapiens, UniProt Q12866); test: Human Mer kinase assay (33P-phosphoryl transfer radiometric, KinaseProfiler); conditions: biochemical activity; 10 μM ATP
T1 construct: Human Mer (residues R557-E882 with H628Q and R794A, 0.7 nM); purchased Eurofins Pharma Discovery Services UK Limited (KinaseProfiler service)
T1 sequence (Q12866 557-882 limits assumed): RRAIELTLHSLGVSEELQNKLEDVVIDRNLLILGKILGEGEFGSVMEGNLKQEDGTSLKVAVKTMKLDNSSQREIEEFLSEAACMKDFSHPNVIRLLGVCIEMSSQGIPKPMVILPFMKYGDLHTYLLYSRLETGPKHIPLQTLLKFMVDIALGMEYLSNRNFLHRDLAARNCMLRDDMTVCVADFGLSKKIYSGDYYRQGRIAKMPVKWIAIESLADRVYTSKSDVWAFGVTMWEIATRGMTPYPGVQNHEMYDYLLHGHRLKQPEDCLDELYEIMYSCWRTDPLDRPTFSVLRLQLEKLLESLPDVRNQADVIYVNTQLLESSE
Method: (§1) Kinase activity and compound inhibition were investigated using the ^33P-Phosphoryl transfer radiometric kinase assay, performed using the KinaseProfiler™ service of Eurofins Pharma Discovery Services UK Limited. Dose-response experiments were performed using nine compound concentrations in a 96-well microtiter plate. For each assay, all compounds were prepared to a 50× final assay concentration (50 μM) in 100% DMSO, then diluted in a half-log series, with the final top concentration at 1 μM. This working stock of the compound was added to the assay well as the first component in the reaction, followed by the remaining components as detailed in the following assay protocols below. The positive control wells (100% kinase activity) contain all components of the reaction including 2% DMSO (control for solvent effects), except the compound of interest. Blank wells contain all components of the reaction, with the reference inhibitor, staurosporine. This reference compound was used to abolish kinase activity and generated the 0% kinase activity base-line. IC50 values were calculated by nonlinear regression analysis using the sigmoidal dose-response (variable slope) curve fit on XLFit version 5.3 (ID Business Solutions).
Human Mer (residues R557-E882 with H628Q and R794A, 0.7 nM) was incubated with 8 mM MOPS pH 7.0, 0.2 mM EDTA, 30 mM NaCl, 250 μM GGMEDIYFEFMGGKKK, 10 mM magnesium acetate and 10 μM [y-^33P-ATP]. The reaction was initiated by the addition of the Mg/ATP mix. After incubation for 40 minutes at room temperature, the reaction was stopped by the addition of phosphoric acid to a concentration of 0.5%. A reaction aliquot of 10 μL was then spotted onto a P30 filtermat and washed four times for 4 minutes in 0.425% phosphoric acid and once in methanol prior to drying and scintillation counting. Incorporated ^33P was measured using the Wallac Microbeta scintillation counter (Perkin Elmer).

Met [1] = biological target: T2, Met (Homo sapiens, UniProt P08581); test: Met autophosphorylation ELISA in PC-3 cells; assay type: cell-based; design: endogenous in cells; host or cells: PC-3 prostate cancer cells (ATCC #CRL-1435); conditions: cellular activity, HGF-stimulated, phospho-Met ELISA, read-out: c-Met IC50
In short: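 PC-3 cells serum-starved 3 h, treated 1 h with 8-point compound series (0.3% DMSO), then stimulated with 100 ng/mL human HGF for 10 min. Lysate phospho-Met (panTyr) measured by sandwich ELISA; IC50 from 4-parameter logistic fit against DMSO and reference-inhibitor controls.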
Target sequence in this assay (P08581 25-1390): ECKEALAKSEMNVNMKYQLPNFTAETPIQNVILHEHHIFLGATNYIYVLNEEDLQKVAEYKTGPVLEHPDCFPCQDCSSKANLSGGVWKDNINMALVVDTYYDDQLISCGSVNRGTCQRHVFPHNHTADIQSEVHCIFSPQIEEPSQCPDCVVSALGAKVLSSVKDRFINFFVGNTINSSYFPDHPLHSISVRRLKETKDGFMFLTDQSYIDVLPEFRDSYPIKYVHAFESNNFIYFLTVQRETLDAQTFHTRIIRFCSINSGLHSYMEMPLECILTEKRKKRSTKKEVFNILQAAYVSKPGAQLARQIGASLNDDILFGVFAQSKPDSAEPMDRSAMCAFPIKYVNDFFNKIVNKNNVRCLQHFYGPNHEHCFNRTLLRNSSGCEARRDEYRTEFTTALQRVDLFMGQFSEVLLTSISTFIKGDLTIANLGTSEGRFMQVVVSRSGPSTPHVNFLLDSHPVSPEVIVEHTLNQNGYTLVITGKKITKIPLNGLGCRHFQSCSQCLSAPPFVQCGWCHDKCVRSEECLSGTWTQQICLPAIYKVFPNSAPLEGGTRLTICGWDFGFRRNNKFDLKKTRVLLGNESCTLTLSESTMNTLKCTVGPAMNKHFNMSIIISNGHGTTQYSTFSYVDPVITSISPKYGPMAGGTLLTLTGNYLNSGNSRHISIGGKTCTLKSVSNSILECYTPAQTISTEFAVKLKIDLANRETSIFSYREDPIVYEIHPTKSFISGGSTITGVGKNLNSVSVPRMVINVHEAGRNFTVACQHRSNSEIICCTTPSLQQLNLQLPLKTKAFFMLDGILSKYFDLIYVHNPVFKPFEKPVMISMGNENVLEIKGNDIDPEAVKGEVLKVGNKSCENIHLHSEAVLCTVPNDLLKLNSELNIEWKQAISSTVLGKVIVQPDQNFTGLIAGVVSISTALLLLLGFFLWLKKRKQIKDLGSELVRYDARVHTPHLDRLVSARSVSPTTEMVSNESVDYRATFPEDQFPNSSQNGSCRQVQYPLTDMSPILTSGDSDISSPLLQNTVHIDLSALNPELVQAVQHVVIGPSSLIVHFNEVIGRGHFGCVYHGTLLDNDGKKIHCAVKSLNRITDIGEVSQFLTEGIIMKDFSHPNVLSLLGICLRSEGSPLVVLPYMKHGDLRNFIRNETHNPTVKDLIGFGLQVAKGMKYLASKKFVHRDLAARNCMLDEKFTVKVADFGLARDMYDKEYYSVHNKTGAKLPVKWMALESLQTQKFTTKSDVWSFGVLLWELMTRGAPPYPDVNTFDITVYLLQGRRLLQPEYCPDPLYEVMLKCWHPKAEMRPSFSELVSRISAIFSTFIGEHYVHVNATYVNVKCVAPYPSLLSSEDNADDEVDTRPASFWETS

Met [2] = biological target: T2, Met; test: Human Met kinase assay (33P-phosphoryl transfer radiometric, KinaseProfiler); design: Human Met (residues R974-S1390 with A1209G and V1290L, 3.4 nM); purchased Eurofins Pharma Discovery Services UK Limited (KinaseProfiler service); conditions: biochemical activity; 10 μM ATP; read-out: c-Met IC50
Method: as §1
Target sequence in this assay (P08581 974-1390): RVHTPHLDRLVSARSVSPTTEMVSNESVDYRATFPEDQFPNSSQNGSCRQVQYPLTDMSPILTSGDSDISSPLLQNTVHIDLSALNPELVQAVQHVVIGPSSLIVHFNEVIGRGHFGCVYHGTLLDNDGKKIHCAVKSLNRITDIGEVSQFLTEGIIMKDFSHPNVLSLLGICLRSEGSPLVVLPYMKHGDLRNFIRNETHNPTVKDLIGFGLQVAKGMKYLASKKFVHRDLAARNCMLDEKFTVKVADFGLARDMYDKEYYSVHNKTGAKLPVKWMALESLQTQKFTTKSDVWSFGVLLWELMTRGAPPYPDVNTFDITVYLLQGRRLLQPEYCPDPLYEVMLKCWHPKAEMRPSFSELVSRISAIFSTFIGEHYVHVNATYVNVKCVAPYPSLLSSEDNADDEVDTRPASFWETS
Human Met (residues R974-S1390 with A1209G and V1290L, 3.4 nM) was incubated with 8 mM MOPS pH 7.0, 0.2 mM EDTA, 250 μM KKKGQEEEYVFIE, 1 mM sodium orthovanadate, 5 mM […], 10 mM magnesium acetate, and 10 μM [γ-^33P-ATP]. The reaction was initiated by the addition of the Mg/ATP mix. After incubation for 40 minutes at room temperature, the reaction was stopped by the addition of phosphoric acid to a concentration of 0.5%. A reaction aliquot of 10 μL was then spotted onto a P30 filtermat and washed four times for 4 minutes in 0.425% phosphoric acid and once in methanol prior to drying and scintillation counting. Incorporated ^33P was measured using the Wallac Microbeta scintillation counter (Perkin Elmer).

Row | Structure (SMILES) | IC50 (Human Mer) | IC50 (Met [1]) | IC50 (Met [2])
1 | C#Cc1ccc2c(Oc3ccc(NC(=O)C4(C(=O)Nc5ccc(F)cc5)CC4)cc3)ccnc2c1 [Compound 64, 1-N-[4-(7-Ethynylquinolin-4-yl)oxyphenyl]-1-N′-(4-fluorophenyl)cyclopropane-1,1-dicarboxamide] | 10 to 100 nM | 100 to 300 nM | ≤ 10 nM
2 | O=C(Nc1ccc(F)cc1)C1(C(=O)Nc2ccc(Oc3ccnc4cc(-c5cnn[nH]5)ccc34)cc2)CC1 [Compound 65, 1-N′-(4-Fluorophenyl)-1-N-[4-[7-(1H-triazol-5-yl)quinolin-4-yl]oxyphenyl]cyclopropane-1,1-dicarboxamide] | 100 to 1000 nM | > 300 nM | 100 to 1000 nM
3 | O=C(Nc1ccc(F)cc1)C1(C(=O)Nc2ccc(Oc3ccnc4cc(-c5ncco5)ccc34)cc2)CC1 [Compound 66, 1-N′-(4-Fluorophenyl)-1-N-[4-[7-(1,3-oxazol-2-yl)quinolin-4-yl]oxyphenyl]cyclopropane-1,1-dicarboxamide] | ≤ 10 nM | 10 to 100 nM | ≤ 10 nM
4 | O=C(Nc1ccc(F)cc1)C1(C(=O)Nc2ccc(Oc3ccnc4cc(-c5cn[nH]c5)ccc34)cc2)CC1 [Compound 67, 1-N′-(4-Fluorophenyl)-1-N-[4-[7-(1H-pyrazol-4-yl)quinolin-4-yl]oxyphenyl]cyclopropane-1,1-dicarboxamide] | ≤ 10 nM | ≤ 10 nM | ≤ 10 nM
5 | O=C(Nc1ccc(F)cc1)C1(C(=O)Nc2ccc(Oc3ccnc4cc(-c5ccn[nH]5)ccc34)cc2)CC1 [Compound 68, 1-N′-(4-Fluorophenyl)-1-N-[4-[7-(1H-pyrazol-5-yl)quinolin-4-yl]oxyphenyl]cyclopropane-1,1-dicarboxamide] | ≤ 10 nM | 10 to 100 nM | ≤ 10 nM
6 | Cn1cnc(-c2ccc3c(Oc4ccc(NC(=O)C5(C(=O)Nc6ccc(F)cc6)CC5)cc4)ccnc3c2)c1 [Compound 69, 1-N′-(4-Fluorophenyl)-1-N-[4-[7-(1-methylimidazol-4-yl)quinolin-4-yl]oxyphenyl]cyclopropane-1,1-dicarboxamide] | ≤ 10 nM | ≤ 10 nM | ≤ 10 nM
7 | O=C(Nc1ccc(F)cc1)C1(C(=O)Nc2ccc(Oc3ccnc4cc(-c5cnc[nH]5)ccc34)cc2)CC1 [Compound 72, 1-N′-(4-Fluorophenyl)-1-N-[4-[7-(1H-imidazol-5-yl)quinolin-4-yl]oxyphenyl]cyclopropane-1,1-dicarboxamide] | ≤ 10 nM | ≤ 10 nM | ≤ 10 nM
8 | O=C(Nc1ccc(F)cc1)C1(C(=O)Nc2ccc(Oc3ccnc4cc(-c5nnco5)ccc34)cc2)CC1 [Compound 73, 1-N′-(4-Fluorophenyl)-1-N-[4-[7-(1,3,4-oxadiazol-2-yl)quinolin-4-yl]oxyphenyl]cyclopropane-1,1-dicarboxamide] | ≤ 10 nM | 10 to 100 nM | ≤ 10 nM
9 | O=C(Nc1ccc(F)cc1)C1(C(=O)Nc2ccc(Oc3ccnc4cc(-c5ncc[nH]5)ccc34)cc2)CC1 [Compound 74, 1-N′-(4-Fluorophenyl)-1-N-[4-[7-(1H-imidazol-2-yl)quinolin-4-yl]oxyphenyl]cyclopropane-1,1-dicarboxamide] | ≤ 10 nM | ≤ 10 nM | ≤ 10 nM
10 | Cn1ccnc1-c1ccc2c(Oc3ccc(NC(=O)C4(C(=O)Nc5ccc(F)cc5)CC4)cc3)ccnc2c1 [Compound 75, 1-N′-(4-Fluorophenyl)-1-N-[4-[7-(1-methylimidazol-2-yl)quinolin-4-yl]oxyphenyl]cyclopropane-1,1-dicarboxamide] | ≤ 10 nM | 10 to 100 nM | ≤ 10 nM
11 | COc1cc2c(Oc3ccc(NC(=O)C4(C(=O)Nc5ccc(F)cc5)CC4)cc3)ccnc2cc1-c1cnn(C)c1 [Compound 76, 1-N′-(4-Fluorophenyl)-1-N-[4-[6-methoxy-7-(1-methylpyrazol-4-yl)quinolin-4-yl]oxyphenyl]cyclopropane-1,1-dicarboxamide] | ≤ 10 nM | 10 to 100 nM | ≤ 10 nM
12 | CNC(=O)c1cc2c(Oc3ccc(NC(=O)C4(C(=O)Nc5ccc(F)cc5)CC4)cc3)ccnc2cc1-c1cnn(C)c1 [Compound 77, 1-N′-(4-Fluorophenyl)-1-N-[4-[6-(methylcarbamoyl)-7-(1-methylpyrazol-4-yl)quinolin-4-yl]oxyphenyl]cyclopropane-1,1-dicarboxamide] | ≤ 10 nM | 10 to 100 nM | ≤ 10 nM
13 | Cc1cc2c(Oc3ccc(NC(=O)C4(C(=O)Nc5ccc(F)cc5)CC4)cc3)ccnc2cc1-c1cnn(C)c1 [Compound 78, 1-N′-(4-Fluorophenyl)-1-N-[4-[6-methyl-7-(1-methylpyrazol-4-yl)quinolin-4-yl]oxyphenyl]cyclopropane-1,1-dicarboxamide] | ≤ 10 nM | ≤ 10 nM | ≤ 10 nM
14 | CS(=O)(=O)n1cc(-c2ccc3c(Oc4ccc(NC(=O)C5(C(=O)Nc6ccc(F)cc6)CC5)cc4)ccnc3c2)cn1 [Compound 79, 1-N′-(4-Fluorophenyl)-1-N-[4-[7-(1-methylsulfonylpyrazol-4-yl)quinolin-4-yl]oxyphenyl]cyclopropane-1,1-dicarboxamide] | ≤ 10 nM | 10 to 100 nM | ≤ 10 nM
15 | CC1Cc2cc(F)ccc2N1C(=O)C1(C(=O)Nc2ccc(Oc3ccnc4cc(-c5cnn(C)c5)ccc34)cc2)CC1 (stereo not drawn) [Compound 80, 1-(5-Fluoro-2-methyl-2,3-dihydroindole-1-carbonyl)-N-[4-[7-(1-methylpyrazol-4-yl)quinolin-4-yl]oxyphenyl]cyclopropane-1-carboxamide] | 100 to 1000 nM | 100 to 300 nM | 10 to 100 nM
16 | Cn1cc(-c2ccc3c(Oc4ccc(NC(=O)C5(C(=O)N6CCc7cc(F)ccc76)CC5)cc4)ccnc3c2)cn1 [Compound 81, 1-(5-Fluoro-2,3-dihydroindole-1-carbonyl)-N-[4-[7-(1-methylpyrazol-4-yl)quinolin-4-yl]oxyphenyl]cyclopropane-1-carboxamide] | 10 to 100 nM | 10 to 100 nM | ≤ 10 nM
17 | Cc1cc(F)cc(C)c1NC(=O)C1(C(=O)Nc2ccc(Oc3ccnc4cc(-c5cnn(C)c5)ccc34)cc2)CC1 [Compound 82, 1-N′-(4-Fluoro-2,6-dimethylphenyl)-1-N-[4-[7-(1-methylpyrazol-4-yl)quinolin-4-yl]oxyphenyl]cyclopropane-1,1-dicarboxamide] | ≤ 10 nM | 100 to 300 nM | 10 to 100 nM
18 | CN(C(=O)C1(C(=O)Nc2ccc(Oc3ccnc4cc(-c5cnn(C)c5)ccc34)cc2)CC1)c1ccc(F)cc1 [Compound 82A, 1-N′-(4-Fluorophenyl)-1-N′-methyl-1-N-[4-[7-(1-methylpyrazol-4-yl)quinolin-4-yl]oxyphenyl]cyclopropane-1,1-dicarboxamide] | 100 to 1000 nM | > 300 nM | 100 to 1000 nM
19 | O=C(Nc1ccc(F)cc1)C1(C(=O)Nc2ccc(Oc3ccnc4cc(C5CCNC5)ccc34)cc2)CC1 (stereo not drawn) [Compound 83, 1-N′-(4-Fluorophenyl)-1-N-[4-(7-pyrrolidin-3-ylquinolin-4-yl)oxyphenyl]cyclopropane-1,1-dicarboxamide] | ≤ 10 nM | 10 to 100 nM | ≤ 10 nM

Source: patent US12503438B2, “Compounds for the treatment of kinase-dependent disorders” (Exelixis, Inc., priority 2019, dated 2025)
